Structures are written as SMILES.

Series [1] deals with T1, AKR1C3 (Homo sapiens, UniProt P42330).
T1 sequence (P42330 1-323): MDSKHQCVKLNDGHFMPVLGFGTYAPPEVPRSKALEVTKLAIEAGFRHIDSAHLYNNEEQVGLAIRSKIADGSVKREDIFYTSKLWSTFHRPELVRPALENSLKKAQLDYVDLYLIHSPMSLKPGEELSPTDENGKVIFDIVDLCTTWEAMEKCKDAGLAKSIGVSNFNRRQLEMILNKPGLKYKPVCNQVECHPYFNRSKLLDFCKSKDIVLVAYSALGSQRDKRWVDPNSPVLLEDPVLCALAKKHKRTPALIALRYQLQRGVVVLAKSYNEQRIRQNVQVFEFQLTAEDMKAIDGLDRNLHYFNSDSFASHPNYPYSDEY
Briefly: Activation by the aldoketo reductase AKR1C3, LC/MS/MS of % remaining. It counts as biochemical. The settings on record: 5 μM, 25 μg/mL AKR1C3, 2 mM NADPH, 37° C., up to 120 min, FIG. 2. The procedure:
Recombinant human AKR1C3 was diluted to 25 μg/mL in phosphate buffered saline (PBS), pH 7.4 (37° C.), containing 2 mM NADPH. TH2870 or progesterone (positive control) in 30% methanol/70% water was added to the reaction mixture at a final concentration of 5 μM and incubated at 37° C. for 120 minutes. At various times up to 120 min, 50 μL of the reaction mixture was taken and 200 μL acetonitrile containing propranolol as internal standard was added, vortex-mixed and centrifuged for 10 min. The resulting supernatant (5 μL) was injected into a LC/MS/MS for quantitation of % remaining TH 2870 and progesterone. The compounds were tested in duplicates.

The conditions of series [2]: human, in vivo; cited from earlier work.
Series [3] concerns the target T1, AKR1C3. The settings on record: cited from earlier work.
Series [4] concerns HepG2-GFP human hepatocellular carcinoma. Briefly: Orthotopic HepG2-GFP human hepatocellular carcinoma mouse model, tumor burden. Format: in vivo, nude mice. The procedure: Female athymic nude mice (6 weeks of age) were used in this study. The animals were purchased from Beijing HFK Bioscience, Co., Ltd and maintained in a High Efficiency Particulate Air Filter (HEPA) filtered environment with cages, food, and bedding sterilized by irradiation or autoclaving. A total of 32 nude mice were used for the study. HepG2-GFP human hepatocellular carcinoma cells (AntiCancer, Inc., San Diego, Calif.) were incubated with RPMI-1640 (Gibco-BRL, Life Technologies, Inc.), which contained 10% FBS. Cells were grown in a CO2 Water Jacketed Incubator (Forma Scientific) maintaining 37° C. and a 5% CO2/95% air atmosphere. Cell viability was determined by trypan blue exclusion analysis. Five female athymic nude mice were injected subcutaneously with a single dose of 5×10^6 HepG2-GFP cells. Tumors were harvested when their size reached 1 cm^3 and the tumor tissues were then cut into small fragments of 1 mm^3. Forty female nude mice were implanted orthotopically with a single piece of tumor fragment, which was derived from a subcutaneous tumor model of HepG2-GFP human hepatocellular carcinoma. The tumor tissue was orthotopically implanted in the right lobe of the liver in each mouse by SOI (Surgical Orthotopic Implantation). […]
During the period of the study, all of the experimental mice were checked daily for mortality or signs of morbidity. […] The body weights of the mice were measured twice weekly during the study period. […] Comparisons of body weights and tumor burdens in different groups were analyzed using the Student's t-test with an α=0.05 (two-sided). […]
The progressions of orthotopic HepG2-GFP hepatocellular carcinoma in different groups were monitored by real time imaging. […] Typical tumor images at the end of the study in each group and tumor growth curves derived from the signals of tumor fluorescence, which were analyzed using the Power Station software (INDEC Biosystems, CA, USA), are shown in FIG. 6 and FIG. 7, respectively
Tumor IR was calculated based on the final average tumor weights according to the formula: IR (%)=(1−treatment(t)/control(c))×100

A short description of series [5]: Body weight and toxicity in the orthotopic HepG2-GFP mouse model. Format: in vivo, nude mice. The settings on record: 30 mg/kg, Qdx35, gavage.

As for `CC(OP(=O)(N1CC1)N1CC1)c1ccc([N+](=O)[O-])c(Oc2cccc(C(=O)N(C)C)c2)c1` (racemic) [TH 2870, (R,S)-1-(3-(3-N,N-dimethylaminocarbonyl)phenoxyl-4-nitrophenyl)-1-ethyl-N,N′-bis(ethylene)phosphoramidate], in series [1], the “disappearance (% remaining) in the presence of AKR1C3” value is “rapid disappearance”.

`CS(=O)(=O)OCCN(CCBr)c1c(C(=O)NCCOP(=O)(O)O)cc([N+](=O)[O-])cc1[N+](=O)[O-]` [PR 104]: the “efficacy in clinical trials” value in series [2] was “ineffective”. In series [3], the “substrate for AKR1C3” value is on record as “weak substrate”.

As to `CC(=O)[C@H]1CC[C@H]2[C@@H]3CCC4=CC(=O)CC[C@]4(C)[C@H]3CC[C@]12C` [Progesterone, reference compound], the “disappearance (% remaining) in the presence of AKR1C3” value in series [1] is “reduced slowly”.

As to `CNC(=O)c1cc(Oc2ccc(NC(=O)Nc3ccc(Cl)c(C(F)(F)F)c3)cc2)ccn1` [Sorafenib, sorafenib], the “average tumor size, % less than in the negative control group” value in series [4] (30 mg/kg, Qdx35, gavage, P=0.0577) was “about 39%”. Besides, in series [4] (at tested dosages), the “inhibitory effect on orthotopic HepG2-GFP model” value is reported as “had inhibitory effect”. In addition, in series [5], the “Body Weight Growth Rate” value is reported as 21%; the “Day 0, Body Weight (mean ± sd)” value is reported as 15.1 ± 1.1 g; the “Day 35, Body Weight (mean ± sd)” value is listed as 18.2 ± 0.8 g. Besides, the “toxicity to the experimental mice” value in series [5] (body weight lower than negative control) is “a certain degree of toxicity”.
